Data reported in patent US12077503B2, “Substituted cyclic amides and their use as herbicides” (FMC CORPORATION, priority 2015, dated 2024).

How the values were obtained:
Assay type in all cases: in vivo
[1] = system: ivy-leaved morning glory (Ipomoea hederacea); experiment: Test G Pre-Emergence Protocol; settings: Ipomoea, pre-emergence, 312 h, evaluated after 13 days; for pest or weed control at 15.625 g/ha: 15.625 g ai/ha; for pest or weed control at 15.625 g/ha / pest or weed control at 250 g/ha: read-out: Morningglory, Ivy-leaved damage rating (100=total damage to plant; 0=no damage to plant); for pest or weed control at 62.5 g/ha: 62.5 g ai/ha, 100=total damage to plant, 0=no damage to plant, read-out: Morningglory, Ivy-leaved damage rating; for pest or weed control at 250 g/ha: 250 g ai/ha
In short: (§1)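 One day after sowing, pots are treated with a spray of test compound formulated in acetone/water 50:50 plus 0.5% Tween 20, giving 15.625, 62.5 or 250 g/ha. Evaluation on a 0–100 damage scale follows 13 days of glasshouse growth.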

[2] = system: giant foxtail (Setaria faberi); experiment: Test G Pre-Emergence Protocol; settings: Setaria faberi, pre-emergence, 312 h, evaluated after 13 days; for pest or weed control at 15.625 g/ha: 15.625 g ai/ha; for pest or weed control at 15.625 g/ha / pest or weed control at 250 g/ha: read-out: Foxtail, Giant damage rating (100=total damage to plant; 0=no damage to plant); for pest or weed control at 62.5 g/ha: 62.5 g ai/ha, 100=total damage to plant, 0=no damage to plant, read-out: Foxtail, Giant damage rating; for pest or weed control at 250 g/ha: 250 g ai/ha
In short: as §1

[3] = system: barnyardgrass (Echinochloa crus-galli); experiment: Test G Pre-Emergence Protocol; settings: Echinochloa crus-galli, pre-emergence, 312 h, evaluated after 13 days; for pest or weed control at 15.625 g/ha: 15.625 g ai/ha; for pest or weed control at 15.625 g/ha / pest or weed control at 250 g/ha: read-out: Barnyardgrass damage rating (100=total damage to plant; 0=no damage to plant); for pest or weed control at 62.5 g/ha: 62.5 g ai/ha, 100=total damage to plant, 0=no damage to plant, read-out: Barnyardgrass damage rating; for pest or weed control at 250 g/ha: 250 g ai/ha
In short: as §1

corn (Zea mays) [4] = experiment: Test G Pre-Emergence Protocol; settings: Zea mays, pre-emergence, 312 h, evaluated after 13 days; for plant injury at 15.625 g/ha: 15.625 g ai/ha; for plant injury at 15.625 g/ha / plant injury at 250 g/ha: read-out: Corn damage rating (100=total damage to plant; 0=no damage to plant); for plant injury at 62.5 g/ha: 62.5 g ai/ha, 100=total damage to plant, 0=no damage to plant, read-out: Corn damage rating; for plant injury at 250 g/ha: 250 g ai/ha
In short: as §1

[5] = system: velvetleaf (Abutilon theophrasti); experiment: Test G Pre-Emergence Protocol; settings: Abutilon theophrasti, pre-emergence, 312 h, evaluated after 13 days; for pest or weed control at 15.625 g/ha: 15.625 g ai/ha; for pest or weed control at 15.625 g/ha / pest or weed control at 250 g/ha: read-out: Velvetleaf damage rating (100=total damage to plant; 0=no damage to plant); for pest or weed control at 62.5 g/ha: 62.5 g ai/ha, 100=total damage to plant, 0=no damage to plant, read-out: Velvetleaf damage rating; for pest or weed control at 250 g/ha: 250 g ai/ha
In short: as §1

[6] = system: redroot pigweed (Amaranthus retroflexus); experiment: Test G Pre-Emergence Protocol; settings: Amaranthus retroflexus, pre-emergence, 312 h, evaluated after 13 days; for pest or weed control at 15.625 g/ha: 15.625 g ai/ha; for pest or weed control at 15.625 g/ha / pest or weed control at 250 g/ha: read-out: Pigweed, Redroot damage rating (100=total damage to plant; 0=no damage to plant); for pest or weed control at 62.5 g/ha: 62.5 g ai/ha, 100=total damage to plant, 0=no damage to plant, read-out: Pigweed, Redroot damage rating; for pest or weed control at 250 g/ha: 250 g ai/ha
In short: as §1

[7] = system: ivy-leaved morning glory (Ipomoea hederacea); experiment: Test G Post-Emergence Protocol; settings: Ipomoea, post-emergence, 312 h, read-out: Morningglory, Ivy-leaved damage rating; for pest or weed control at 15.625 g/ha: 15.625 g ai/ha, evaluated after 13 days (100=total damage to plant; 0=no damage to plant); for pest or weed control at 62.5 g/ha: 62.5 g ai/ha; for pest or weed control at 62.5 g/ha / pest or weed control at 250 g/ha: evaluated after 13 days, 100=total damage to plant, 0=no damage to plant; for pest or weed control at 250 g/ha: 250 g ai/ha
In short: (§2)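 Values are percent visual injury at 13 days after treatment (0 none, 100 total). Treatment was a post-emergence spray at 15.625, 62.5 or 250 g/ha on 8-day-old pot plants kept at 24/16 °C.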

[8] = system: giant foxtail (Setaria faberi); experiment: Test G Post-Emergence Protocol; settings: Setaria faberi, post-emergence, 312 h, read-out: Foxtail, Giant damage rating; for pest or weed control at 15.625 g/ha: 15.625 g ai/ha, evaluated after 13 days (100=total damage to plant; 0=no damage to plant); for pest or weed control at 62.5 g/ha: 62.5 g ai/ha; for pest or weed control at 62.5 g/ha / pest or weed control at 250 g/ha: evaluated after 13 days, 100=total damage to plant, 0=no damage to plant; for pest or weed control at 250 g/ha: 250 g ai/ha
In short: as §2

[9] = system: barnyardgrass (Echinochloa crus-galli); experiment: Test G Post-Emergence Protocol; settings: Echinochloa crus-galli, post-emergence, 312 h, read-out: Barnyardgrass damage rating; for pest or weed control at 15.625 g/ha: 15.625 g ai/ha, evaluated after 13 days (100=total damage to plant; 0=no damage to plant); for pest or weed control at 62.5 g/ha: 62.5 g ai/ha; for pest or weed control at 62.5 g/ha / pest or weed control at 250 g/ha: evaluated after 13 days, 100=total damage to plant, 0=no damage to plant; for pest or weed control at 250 g/ha: 250 g ai/ha
In short: as §2

corn (Zea mays) [10] = experiment: Test G Post-Emergence Protocol; settings: Zea mays, post-emergence, 312 h, read-out: Corn damage rating; for plant injury at 15.625 g/ha: 15.625 g ai/ha, evaluated after 13 days (100=total damage to plant; 0=no damage to plant); for plant injury at 62.5 g/ha: 62.5 g ai/ha; for plant injury at 62.5 g/ha / plant injury at 250 g/ha: evaluated after 13 days, 100=total damage to plant, 0=no damage to plant; for plant injury at 250 g/ha: 250 g ai/ha
In short: as §2

[11] = system: velvetleaf (Abutilon theophrasti); experiment: Test G Post-Emergence Protocol; settings: Abutilon theophrasti, post-emergence, 312 h, read-out: Velvetleaf damage rating; for pest or weed control at 15.625 g/ha: 15.625 g ai/ha, evaluated after 13 days (100=total damage to plant; 0=no damage to plant); for pest or weed control at 62.5 g/ha: 62.5 g ai/ha; for pest or weed control at 62.5 g/ha / pest or weed control at 250 g/ha: evaluated after 13 days, 100=total damage to plant, 0=no damage to plant; for pest or weed control at 250 g/ha: 250 g ai/ha
In short: as §2

[12] = system: redroot pigweed (Amaranthus retroflexus); experiment: Test G Post-Emergence Protocol; settings: Amaranthus retroflexus, post-emergence, 312 h, read-out: Pigweed, Redroot damage rating; for pest or weed control at 15.625 g/ha: 15.625 g ai/ha, evaluated after 13 days (100=total damage to plant; 0=no damage to plant); for pest or weed control at 62.5 g/ha: 62.5 g ai/ha; for pest or weed control at 62.5 g/ha / pest or weed control at 250 g/ha: evaluated after 13 days, 100=total damage to plant, 0=no damage to plant; for pest or weed control at 250 g/ha: 250 g ai/ha
In short: as §2

Row | SMILES | pest or weed control at 15.625 g/ha [1] | pest or weed control at 62.5 g/ha [1] | pest or weed control at 250 g/ha [1] | pest or weed control at 15.625 g/ha [2] | pest or weed control at 62.5 g/ha [2] | pest or weed control at 250 g/ha [2] | pest or weed control at 15.625 g/ha [3] | pest or weed control at 62.5 g/ha [3] | pest or weed control at 250 g/ha [3] | plant injury at 15.625 g/ha (corn (Zea mays) [4]) | plant injury at 62.5 g/ha (corn (Zea mays) [4]) | plant injury at 250 g/ha (corn (Zea mays) [4]) | pest or weed control at 15.625 g/ha [5] | pest or weed control at 62.5 g/ha [5] | pest or weed control at 250 g/ha [5] | pest or weed control at 15.625 g/ha [6] | pest or weed control at 62.5 g/ha [6] | pest or weed control at 250 g/ha [6] | pest or weed control at 15.625 g/ha [7] | pest or weed control at 62.5 g/ha [7] | other results
1 | COc1cc(C2CN(C)C(=O)C2C(=O)Nc2cccc(F)c2F)cc(Cl)c1F (stereo not drawn) [Compound 1705] | 0% | 0% | 10% | 50% | 70% | 80% | 20% | 60% | 70% | 0% | 10% | 70% | 0% | 0% | 20% | 0% | 0% | 30% | 0% | 20% | pest or weed control at 250 g/ha [7]: 50%; pest or weed control at 15.625 g/ha [8]: 70%; pest or weed control at 62.5 g/ha [8]: 70%; pest or weed control at 250 g/ha [8]: 80%; pest or weed control at 15.625 g/ha [9]: 20%; pest or weed control at 62.5 g/ha [9]: 30%; pest or weed control at 250 g/ha [9]: 80%; plant injury at 15.625 g/ha (corn (Zea mays) [10]): 10%; plant injury at 62.5 g/ha (corn (Zea mays) [10]): 0%; plant injury at 250 g/ha (corn (Zea mays) [10]): 70%; pest or weed control at 15.625 g/ha [11]: 0%; pest or weed control at 62.5 g/ha [11]: 0%; pest or weed control at 250 g/ha [11]: 10%; pest or weed control at 15.625 g/ha [12]: 0%; pest or weed control at 62.5 g/ha [12]: 0%; pest or weed control at 250 g/ha [12]: 30%
2 | CC(C)S(=O)(=O)c1ccccc1NC(=O)[C@H]1C(=O)N(C)C[C@@H]1c1ccc(C(F)(F)F)cc1 (racemic) [Compound 1665] | 0% | 0% | 20% | 0% | 0% | 80% | 0% | 0% | 20% | 0% | 0% | 0% | 0% | 0% | 0% | 0% | 0% | 20% | 0% | 0% | pest or weed control at 250 g/ha [7]: 0%; pest or weed control at 15.625 g/ha [8]: 0%; pest or weed control at 62.5 g/ha [8]: 0%; pest or weed control at 250 g/ha [8]: 60%; pest or weed control at 15.625 g/ha [9]: 0%; pest or weed control at 62.5 g/ha [9]: 0%; pest or weed control at 250 g/ha [9]: 40%; plant injury at 15.625 g/ha (corn (Zea mays) [10]): 0%; plant injury at 62.5 g/ha (corn (Zea mays) [10]): 0%; plant injury at 250 g/ha (corn (Zea mays) [10]): 0%; pest or weed control at 15.625 g/ha [11]: 0%; pest or weed control at 62.5 g/ha [11]: 0%; pest or weed control at 250 g/ha [11]: 0%; pest or weed control at 15.625 g/ha [12]: 0%; pest or weed control at 62.5 g/ha [12]: 0%; pest or weed control at 250 g/ha [12]: 40%
